Laboratory results reported in patent US20140296212A1, “SUBSTITUTED PHENOXYPROPYLCYCLOAMINE DERIVATIVES AS HISTAMINE-3 (H3) RECEPTOR LIGANDS” (CEPHALON, INC., priority 2009, published 2014).

Key:
human H3 receptor = biological target: T1, human H3 receptor (Homo sapiens, UniProt Q9Y5N1); test: Human H3 radioligand binding ([3H]-N-alpha-methylhistamine, SPA); details: membranes of CHO cells expressing human H3
T1 construct: expressed in transfected cells
Method in brief: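 Membranes from H3-expressing cells (10 μg protein/well) in 50 mM Tris HCl pH 7.4, 5 mM MgCl2, 0.1% BSA with ~1 nM [3H]-N-alpha-methylhistamine and compound (0.01 nM–30 μM), SPA beads, 4 h, room temperature, dark. Non-specific binding defined with 10 μM clobenpropit; bound radioligand read by scintillation counting.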

[1] = biological target: T2, rat histamine H3 receptor (Rattus norvegicus, UniProt Q9QYN8); test: Rat H3 radioligand binding ([3H]-N-alpha-methylhistamine, SPA); details: membranes of CHO-A3 cells expressing rat H3; [3H]-N-alpha-methylhistamine; read-out: Rat H3 Ki
T2 construct: encoding the entire 445-amino-acid rat histamine H3 receptor; expressed in transfected cells
T2 sequence (Q9QYN8 whole entry): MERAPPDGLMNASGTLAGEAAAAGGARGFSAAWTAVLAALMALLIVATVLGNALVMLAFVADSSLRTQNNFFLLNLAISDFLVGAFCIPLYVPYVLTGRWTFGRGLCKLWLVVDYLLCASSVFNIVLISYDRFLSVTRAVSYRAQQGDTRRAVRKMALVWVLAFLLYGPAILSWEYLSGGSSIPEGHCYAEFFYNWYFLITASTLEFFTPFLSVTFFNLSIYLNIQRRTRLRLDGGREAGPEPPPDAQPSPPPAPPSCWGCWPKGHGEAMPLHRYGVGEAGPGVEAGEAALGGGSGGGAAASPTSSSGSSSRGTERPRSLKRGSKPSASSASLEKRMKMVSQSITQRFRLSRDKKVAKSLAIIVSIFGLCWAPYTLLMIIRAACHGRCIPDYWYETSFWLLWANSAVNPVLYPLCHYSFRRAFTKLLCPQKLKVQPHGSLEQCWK
Method in brief: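 Membranes from CHO-A3 cells stably expressing full-length rat H3 receptor (445 aa) incubated with ~1 nM [3H]-N-alpha-methylhistamine and compound (0.01 nM–30 μM) in 50 mM Tris HCl pH 7.4, 5 mM MgCl2, 0.1% BSA, 4 h, room temperature; SPA bead read-out. Non-specific binding defined with 10 μM clobenpropit.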

T1 sequence (Q9Y5N1 whole entry): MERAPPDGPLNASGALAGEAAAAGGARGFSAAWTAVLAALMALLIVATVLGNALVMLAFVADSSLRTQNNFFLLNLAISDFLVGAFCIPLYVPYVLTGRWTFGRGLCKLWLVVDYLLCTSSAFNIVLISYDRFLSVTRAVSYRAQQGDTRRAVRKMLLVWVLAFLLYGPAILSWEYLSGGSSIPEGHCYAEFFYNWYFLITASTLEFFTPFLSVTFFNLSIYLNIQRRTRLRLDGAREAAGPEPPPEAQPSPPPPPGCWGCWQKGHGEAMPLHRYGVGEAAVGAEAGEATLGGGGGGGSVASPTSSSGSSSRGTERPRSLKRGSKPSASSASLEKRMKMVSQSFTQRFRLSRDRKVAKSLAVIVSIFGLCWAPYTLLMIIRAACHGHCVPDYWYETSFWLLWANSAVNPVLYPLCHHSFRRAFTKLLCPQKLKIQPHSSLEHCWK

SMILES | melting point | Ki (human H3 receptor) | Ki [1]
Cc1cc(OCCCN2CCCCC2)ccc1C(=O)CN1CCOCC1 [Example 72, 1-[2-Methyl-4-(3-piperidin-1-yl-propoxy)-phenyl]-2-morpholin-4-yl-ethanone] | 206 to 215 °C | 0.1 to 100 nM | 101 to 500 nM
C[C@@H]1CCCN1CCCOc1ccc(C(=O)CN2CCN(C(=O)N3CCCC3)CC2)cc1 [Example 75, 1-{4-[3-((R)-2-Methyl-pyrrolidin-1-yl)-propoxy]-phenyl}-2-[4-(pyrrolidine-1-carbonyl)-piperazin-1-yl]-ethanone] | 118 to 130 °C | 0.1 to 100 nM | 0.1 to 100 nM
COC[C@@H]1CCCN1CCCOc1ccc(C(=O)CN2CCOCC2)cc1 [Example 76, 1-{4-[3-((S)-2-Methoxymethyl-pyrrolidin-1-yl)-propoxy]-phenyl}-2-morpholin-4-yl-ethanone] | 74 to 76 °C | > 1000 nM | > 1000 nM
CC(C)C(=O)N1CCN(CC(=O)c2ccc(OCCCN3CCC[C@H]3C)cc2)CC1 [Example 77, 2-Methyl-1-[4-(2-{4-[3-((R)-2-methyl-pyrrolidin-1-yl)-propoxy]-phenyl}-2-oxo-ethyl)-piperazin-1-yl]-propan-1-one] | 220 to 226 °C | 0.1 to 100 nM | 0.1 to 100 nM
O=C(CN1CCOCC1)c1ccc(OCCCN2CCCCC2)cc1 [Example 78, 2-Morpholin-4-yl-1-[4-(3-piperidin-1-yl-propoxy)-phenyl]-ethanone] | 236 to 243 °C | 0.1 to 100 nM | 101 to 500 nM
C[C@@H]1CCCN1CCCOc1ccc(C(=O)CN2CCN(C(=O)N(C)C)CC2)cc1 [Example 79, 4-(2-{4-[3-((R)-2-Methyl-pyrrolidin-1-yl)-propoxy]-phenyl}-2-oxo-ethyl)-piperazine-1-carboxylic acid dimethylamide] | 120 to 126 °C | 0.1 to 100 nM | 0.1 to 100 nM
C[C@@H]1CCCN1CCCOc1ccc(C(=O)CN2CCN(C(=O)c3cccs3)CC2)cc1 [Example 80, 1-{4-[3-((R)-2-Methyl-pyrrolidin-1-yl)-propoxy]-phenyl}-2-[4-(thiophene-2-carbonyl)-piperazin-1-yl]-ethanone] | 152 to 156 °C | 0.1 to 100 nM | 0.1 to 100 nM
C[C@@H]1CCCN1CCCOc1ccc(C(=O)CN2CCN(C(=O)c3ccco3)CC2)cc1 [Example 81, 2-[4-(Furan-2-carbonyl)-piperazin-1-yl]-1-{4-[3-((R)-2-methyl-pyrrolidin-1-yl)-propoxy]-phenyl}-ethanone] | 130 to 135 °C | 0.1 to 100 nM | 0.1 to 100 nM
COC(=O)N1CCN(CC(=O)c2ccc(OCCCN3CCC[C@H]3C)cc2)CC1 [Example 82, 4-(2-{4-[3-((R)-2-Methyl-pyrrolidin-1-yl)-propoxy]-phenyl}-2-oxo-ethyl)-piperazine-1-carboxylic acid methyl ester] | 208 to 210 °C | 0.1 to 100 nM | 0.1 to 100 nM
C[C@@H]1CCCN1CCCOc1ccc(C(=O)CN2CCN(C(=O)C3CCCO3)CC2)cc1 (stereo partly drawn) [Example 83, 1-{4-[3-((R)-2-Methyl-pyrrolidin-1-yl)-propoxy]-phenyl}-2-[4-(tetrahydro-furan-2-carbonyl)-piperazin-1-yl]-ethanone] | 185 to 190 °C | 0.1 to 100 nM | 0.1 to 100 nM
C[C@@H]1CCCN1CCCOc1ccc(C(=O)CN2CCN(C(=O)c3cccn3C)CC2)cc1 [Example 84, 2-[4-(1-Methyl-1H-pyrrole-2-carbonyl)-piperazin-1-yl]-1-{4-[3-((R)-2-methyl-pyrrolidin-1-yl)-propoxy]-phenyl}-ethanone] | 221 to 224 °C | 0.1 to 100 nM | 0.1 to 100 nM
C[C@@H]1CCCN1CCCOc1ccc(C(=O)CN2CCNC(=O)C2)cc1 [Example 85, 4-(2-{4-[3-((R)-2-Methyl-pyrrolidin-1-yl)-propoxy]-phenyl}-2-oxo-ethyl)-piperazin-2-one] | 137 to 145 °C | 0.1 to 100 nM | 0.1 to 100 nM
CC1(C)CCCN1CCCOc1ccc(C(=O)CN2CCOCC2)cc1 [Example 88, 1-{4-[3-(2,2-Dimethyl-pyrrolidin-1-yl)-propoxy]-phenyl}-2-morpholin-4-yl-ethanone] | 117 to 120 °C | > 1000 nM | > 1000 nM
C[C@@H]1CCCN1CCCOc1ccc(C(=O)CN2CCN(C(=O)C3CC3)CC2)cc1 [Example 89, 2-(4-Cyclopropanecarbonyl-piperazin-1-yl)-1-{4-[3-((R)-2-methyl-pyrrolidin-1-yl)-propoxy]-phenyl}-ethanone] | 202 to 204 °C | 0.1 to 100 nM | 0.1 to 100 nM
C[C@@H]1CCCN1CCCOc1ccc(C(=O)CN2CCN(c3ncccn3)CC2)cc1 [Example 90, 1-{4-[3-((R)-2-Methyl-pyrrolidin-1-yl)-propoxy]-phenyl}-2-(4-pyrimidin-2-yl-piperazin-1-yl)-ethanone] | 112 to 114 °C | 0.1 to 100 nM | 0.1 to 100 nM
C[C@@H]1CCCN1CCCOc1ccc(C(=O)CN2CCN(c3ccccc3)CC2)cc1 [Example 91, 1-{4-[3-((R)-2-Methyl-pyrrolidin-1-yl)-propoxy]-phenyl}-2-(4-phenyl-piperazin-1-yl)-ethanone] | 145 to 150 °C | 0.1 to 100 nM | 0.1 to 100 nM
C[C@@H]1CCCN1CCCOc1ccc(C(=O)CN2CCN(C(=O)c3ccc(C(F)(F)F)cc3)CC2)cc1 [Example 92, 1-{4-[3-((R)-2-Methyl-pyrrolidin-1-yl)-propoxy]-phenyl}-2-[4-(4-trifluoromethyl-benzoyl)-piperazin-1-yl]-ethanone] | 227 to 230 °C | 0.1 to 100 nM | 0.1 to 100 nM
C[C@@H]1CCCN1CCCOc1ccc(C(=O)CN2CCN(C(=O)C3CCCCC3)CC2)cc1 [Example 93, 2-(4-Cyclohexanecarbonyl-piperazin-1-yl)-1-{4-[3-((R)-2-methyl-pyrrolidin-1-yl)-propoxy]-phenyl}-ethanone] | 230 to 232 °C | 0.1 to 100 nM | 0.1 to 100 nM
C[C@@H]1CCCN1CCCOc1ccc(C(=O)CN2CCN(c3ccc(F)cc3)CC2)cc1 [Example 94, 2-[4-(4-Fluoro-phenyl)-piperazin-1-yl]-1-{4-[3-((R)-2-methyl-pyrrolidin-1-yl)-propoxy]-phenyl}-ethanone] | 140 to 145 °C | 0.1 to 100 nM | 0.1 to 100 nM
Cc1cc(C(=O)CN2CCC(F)(F)CC2)cc(C)c1OCCCN1CCC[C@H]1C [Example 95, 2-(4,4-Difluoro-piperidin-1-yl)-1-{3,5-dimethyl-4-[3-((R)-2-methyl-pyrrolidin-1-yl)-propoxy]-phenyl}-ethanone] | 140 to 142 °C | 101 to 500 nM | > 1000 nM
C[C@@H]1CCCN1CCCOc1c(Cl)cc(C(=O)CN2CCN(C(=O)c3ccccc3)CC2)cc1Cl [Example 96, 2-(4-Benzoyl-piperazin-1-yl)-1-{3,5-dichloro-4-[3-((R)-2-methyl-pyrrolidin-1-yl)-propoxy]-phenyl}-ethanone] | 111 °C | 0.1 to 100 nM | 101 to 500 nM
CC(=O)N1CCN(CC(=O)c2cc(C)c(OCCCN3CCC[C@H]3C)c(C)c2)CC1 [Example 97, 2-(4-Acetyl-piperazin-1-yl)-1-{3,5-dimethyl-4-[3-((R)-2-methyl-pyrrolidin-1-yl)-propoxy]-phenyl}-ethanone] | 118 to 119 °C | 101 to 500 nM | 501 to 1000 nM
C[C@@H]1CCCN1CCCOc1c(Cl)cc(C(=O)CN2CCC(F)(F)CC2)cc1Cl [Example 98, 1-{3,5-Dichloro-4-[3-((R)-2-methyl-pyrrolidin-1-yl)-propoxy]-phenyl}-2-(4,4-difluoro-piperidin-1-yl)-ethanone] | 102 °C | 0.1 to 100 nM | > 1000 nM
C[C@@H]1CCCN1CCCOc1c(Cl)cc(C(=O)CN2CCN(C(=O)C3CCCCC3)CC2)cc1Cl [Example 99, 2-(4-Cyclohexanecarbonyl-piperazin-1-yl)-1-{3,5-dichloro-4-[3-((R)-2-methyl-pyrrolidin-1-yl)-propoxy]-phenyl}-ethanone] | 168 °C | 0.1 to 100 nM | 101 to 500 nM
C[C@@H]1CCCN1CCCOc1ccc(C(=O)CN2CCN(C(=O)c3ccc(Cl)cc3)CC2)cc1 [Example 100, 2-[4-(4-Chloro-benzoyl)-piperazin-1-yl]-1-{4-[3-((R)-2-methyl-pyrrolidin-1-yl)-propoxy]-phenyl}-ethanone] | 233 to 236 °C | 0.1 to 100 nM | 0.1 to 100 nM
C[C@@H]1CCCN1CCCOc1ccc(C(=O)CN2CCN(C(=O)c3ccc(F)cc3)CC2)cc1 [Example 101, 2-[4-(4-Fluoro-benzoyl)-piperazin-1-yl]-1-{4-[3-((R)-2-methyl-pyrrolidin-1-yl)-propoxy]-phenyl}-ethanone] | 225 to 229 °C | 0.1 to 100 nM | 0.1 to 100 nM
C[C@@H]1CCCN1CCCOc1c(Cl)cc(C(=O)CN2CCN(c3ccccc3)CC2)cc1Cl [Example 102] | 168 °C | 101 to 500 nM | > 1000 nM
Cc1cc(C(=O)CN2CCN(c3ncccn3)CC2)cc(C)c1OCCCN1CCC[C@H]1C [Example 104, 1-{3,5-Dimethyl-4-[3-((R)-2-methyl-pyrrolidin-1-yl)-propoxy]-phenyl}-2-(4-pyrimidin-2-yl-piperazin-1-yl)-ethanone] | 155 to 160 °C (dec.) | 101 to 500 nM | 501 to 1000 nM
